Data on 21 compounds can be found in US11839212B2, “Synergistic pesticidal compositions and methods for delivery of insecticidal active ingredients” (0903608 B.C. Ltd., priority 2018, dated 2023).

Where two headings read alike, the source gives them in different places.

Holding throughout (test): Synergistic Growth Inhibition Assay (MIC and FIC index, 96-well, resazurin)
Holding throughout (assay type): cell-based
(In general: The colour change of resazurin is a common sign of viable cells or microbes.)

In one test the test system is Alternaria solani. The following applies: for MIC: Alternaria solani. As for the experimental part:
(§1) In some embodiments, the synergistic action between the pesticidal active ingredient, and the at least one C6-C10 (or alternatively C11 or C12) saturated or unsaturated aliphatic acid components of the pesticidal compositions according to embodiments of the present disclosure was tested using a Synergistic Growth Inhibition Assay, which is derived from and related to a checkerboard assay as is known in the art for testing of combinations of antimicrobial agents. In the Synergistic Growth Inhibition Assay used in accordance with some embodiments of the present disclosure, multiple dilutions of combinations of pesticidal active ingredient and at least one C6-C10 saturated or unsaturated aliphatic acid agents are tested in individual cells for inhibitory activity against a target pest or pathogenic organism. In one such embodiment, the combinations of pesticidal active ingredient and C6-C10 (or alternatively C11 or C12) saturated or unsaturated aliphatic acid agents may preferably be tested in decreasing concentrations. In a further such embodiment, the combinations of pesticidal active ingredient and C6-C10 (or alternatively C11 or C12) saturated or unsaturated aliphatic acid agents may be tested in increasing concentrations. These multiple combinations of the pesticidal active ingredient and at least one C6-C10 (or alternatively C11 or C12) saturated or unsaturated aliphatic acid agents may be prepared in 96-well microtiter plates. In one such embodiment, the Synergistic Growth Inhibition Assay then comprises rows which each contain progressively decreasing concentrations of the pesticidal active ingredient and one or more C6-C10 (or alternatively C11 or C12) saturated or unsaturated aliphatic acid agents to test for the MIC of the agents in combination at which growth of the target pest or pathogen is inhibited. Thus, each well of the microtiter plate is a unique combination of the two agents, at which inhibitory efficacy of the combination against the target pest or pathogen can be determined.
(§2) In one embodiment according to the present disclosure, for each row of microtiter cells in the Synergistic Growth Inhibition Assay, the FIC index is calculated from the lowest concentration of the pesticidal active ingredient and one or more C6-C10 saturated or unsaturated aliphatic acid agents necessary to inhibit growth of a target pest or pathogen. The FIC of each component is derived by dividing the concentration of the agent present in that well of the microtiter plate by the minimal inhibitory concentration (MIC) needed of that agent alone to inhibit growth of the target pest or pathogen. The FIC index is then the sum of these values for both agents in that well of the microtiter plate. […] Fractional inhibitory concentration indices may then used as measure of synergy. […] When the FIC index is equal to 1, the combination is additive.
(§3) Then, serial dilutions of these initial compositions in successive wells in the row of the microtiter plate were used to assay the pesticidal composition under the same conditions to determine the concentration of the composition combining the two agents corresponding to the microtiter well in which growth inhibition of the target pest or organism ceases.
A culture of the representative fungal pathogen, namely Fusarium oxysporum, Botrytis cinerea, or Sclerotinia sclerotiorum, for example, is grown to exponential phase in potato dextrose broth (PDB).

Another test deals with Botrytis cinerea. The following applies: for MIC: Botrytis cinerea, 48 h. As for the experimental part:
as §1, §2, §3
Similarly to as described above, Resazurin was used as an indicator of growth or inhibition of growth of Botrytis cinerea in the exemplary Synergistic Growth Inhibition Assay. In addition to the color change of the resazurin, an optical or visual examination of the microtiter well may also be made to additionally determine the presence of growth or inhibition of growth of the Botrytis cinerea.

For the next test, the system named is Fusarium oxysporum. The note with it: Fusarium oxysporum. Here is the method:
as §1, §2, §3
Resazurin dye (also known as Alamar blue dye) was used as an indicator to determine the presence of growth or inhibition of growth of Fusarium oxysporum in the wells of the 96 well microtiter plates used in the exemplary Synergistic Growth Inhibition Assay. In addition to the color change of the resazurin dye in the presence of growth of the Fusarium oxysporum, an optical or visual examination of the microtiter well may also be made to additionally determine the presence of growth or inhibition of growth of the Fusarium oxysporum.

In another test the test system is Sclerotinia sclerotiorum. The note with it: Sclerotinia sclerotiorum, […]. Here is the method:
as §1, §2, §3
Similarly to as described above, Resazurin was used as an indicator of growth or inhibition of growth of Sclerotinia sclerotiorum in the exemplary Synergistic Growth Inhibition Assay. In addition to the color change of the resazurin, an optical or visual examination of the microtiter well may also be made to additionally determine the presence of growth or inhibition of growth of the Sclerotinia sclerotiorum.

[1] abbreviates: Compound B alone, 7 days incubation, read-out: MIC (B).
Setting [2] is: Table 51, Compound B alone, 48 hours incubation, read-out: MIC (B).
The mark [3] stands for this setting: Table 59, Compound B alone, 48 hours incubation, read-out: MIC (B).
Where [4] appears, read: 48 h, Table 27, Compound B alone, 48 hours incubation, read-out: MIC (B).
[5] abbreviates: 48 h, Table 30, Compound B alone, 48 hours incubation, read-out: MIC (B).
The mark [6] stands for this setting: 48 h, Table 32, Compound B alone, 48 hours incubation, read-out: MIC (B).
Where [7] appears, read: Compound A alone, 7 days incubation, read-out: MIC (A).
The mark [8] stands for this setting: read-out: MIC (B), Table 51, Compound B alone, 48 hours incubation.
Setting [9] is: read-out: MIC (B), Table 59, Compound B alone, 48 hours incubation.
Where [10] appears, read: Table 56, Compound B alone, 48 hours incubation, read-out: MIC (B).
Setting [11] is: Table 60, Compound B alone, 7 days incubation, read-out: MIC (B).
Setting [12] is: Table 20B, Compound A alone, incubation 7 days, read-out: MIC (A).

The term MIC denotes the smallest concentration in the dilution series that meets the test's criterion for growth inhibition. Consider `CCCC(C)CC(=O)O` (centres unmarked) [3-Methylhexanoic acid], for which the figures for the MIC in the test on Alternaria solani (setting [1]), in the test with Botrytis cinerea (setting [2]) and in the test on Botrytis cinerea (setting [3]) were 250 µg/mL, 125 µg/mL and 125 µg/mL, respectively.

For `C=CCCCCCC(=O)O` [7-Octenoic acid], the MIC in the test with Alternaria solani (setting [1]) turned out to be 156 µg/mL; with Fusarium oxysporum (setting [4]), 312 µg/mL; in the test on Fusarium oxysporum (setting [5]), 312 µg/mL; in the test on Fusarium oxysporum (setting [6]), 156 µg/mL.

Take `CC(C)CC(C)c1sccc1NC(=O)c1cn(C)nc1C(F)(F)F` (centres unmarked) [Penthiopyrad, reference compound]: the MIC turned out to be 500 µg/mL with Alternaria solani (setting [7]); 250 µg/mL in the test on Botrytis cinerea (Table 56, Compound A alone, 48 hours incubation, read-out: MIC (A)); 500 µg/mL with Sclerotinia sclerotiorum (setting [7]).

As to `CCCCC(O)C(=O)O` (centres unmarked) [2-Hydroxyhexanoic acid], the MIC with Alternaria solani (setting [1]) was determined as 2500 µg/mL; with Botrytis cinerea (setting [2]), 1250 µg/mL.

Take `CCCCC(CC)C(=O)O` (centres unmarked) [2-Ethylhexanoic acid]: the MIC in the test with Alternaria solani (setting [1]), in the test with Botrytis cinerea (setting [2]), with Botrytis cinerea (setting [3]) and with Sclerotinia sclerotiorum (setting [1]) was 156 µg/mL in each case.

As to `O=C(O)CCCCCCCCCCCO` [12-Hydroxydodecanoic acid], the MIC in the test with Alternaria solani (read-out: MIC (B)) was 100 µg/mL; with Botrytis cinerea (setting [8]), 100 µg/mL; in the test on Botrytis cinerea (read-out: MIC (B), Table 55, Compound B alone, 48 hours incubation) it was 100 µg/mL; with Botrytis cinerea (read-out: MIC (B), Table 56, Compound B alone, 48 hours incubation) it was 100 µg/mL; with Botrytis cinerea (setting [9]), 50 µg/mL.

For the compound `CCCCCCC(C)CC(=O)O` (centres unmarked) [3-Methylnonanoic acid], the MIC in the test on Alternaria solani (setting [1]) was 62.5 µg/mL.

For the compound `CCC(C)CCC(=O)O` (centres unmarked) [4-Methylhexanoic acid], the MIC is 312 µg/mL in the test on Alternaria solani (setting [1]), 78.1 µg/mL in the test on Botrytis cinerea (setting [2]) and 78.1 µg/mL in the test on Botrytis cinerea (setting [3]).

Regarding `CCC(O)C(=O)O` (centres unmarked) [2-Hydroxybutyric acid], the MIC in the test with Alternaria solani (setting [1]) came to 2500 µg/mL; in the test on Botrytis cinerea (setting [2]) it was 5000 µg/mL; with Botrytis cinerea (setting [10]) it was 2500 µg/mL; with Botrytis cinerea (Table 57, Compound B alone, 48 hours incubation, read-out: MIC (B)) it was 2500 µg/mL; in the test with Botrytis cinerea (setting [3]) it was 2500 µg/mL; in the test with Sclerotinia sclerotiorum (setting [1]), 5000 µg/mL. For the same compound, the “MIC (B)” value in the test on Alternaria solani (Compound B alone, 7 days incubation) stood at 2500 µg/mL.

As to `CC(C)CC(=O)O` [3-Methylbutyric acid], the MIC in the test with Alternaria solani (setting [1]) amounted to 312 µg/mL; in the test with Botrytis cinerea (setting [2]), 312 µg/mL; in the test with Botrytis cinerea (setting [3]) it was 312 µg/mL; in the test with Sclerotinia sclerotiorum (setting [1]), 625 µg/mL.

On to `O=C(O)CCCCCCCCCO` [10-Hydroxydecanoic acid], for which the minimum inhibitory concentration (MIC) was found to be 1000 µg/mL in the test on Alternaria solani (read-out: MIC (B)); 250 µg/mL in the test with Botrytis cinerea (setting [8]); 250 µg/mL in the test on Botrytis cinerea (setting [9]); 500 µg/mL in the test on Sclerotinia sclerotiorum (read-out: MIC (B), Compound B alone, 7 days incubation).

For `OC(Cc1ccccc1Cl)(Cn1nc[nH]c1=S)C1(Cl)CC1` (centres unmarked) [Prothioconazole, reference compound], the MIC stood at 500 µg/mL with Alternaria solani (setting [7]); 31.2 µg/mL in the test with Botrytis cinerea (Table 57, Compound A alone, 48 hours incubation, read-out: MIC (A)); 62.5 µg/mL in the test with Sclerotinia sclerotiorum (setting [7]).

Turning to `CCCCCC(O)CC(=O)O` (centres unmarked) [3-Hydroxyoctanoic acid], the MIC with Alternaria solani (setting [1]) came out at 1250 µg/mL; with Botrytis cinerea (setting [2]), 625 µg/mL; with Botrytis cinerea (setting [10]), 625 µg/mL; in the test on Botrytis cinerea (setting [3]) it was 625 µg/mL.

Take `CCCCCCC(O)C(=O)O` (centres unmarked) [2-Hydroxyoctanoic acid]: the MIC in the test with Alternaria solani (setting [1]), with Botrytis cinerea (setting [2]) and with Sclerotinia sclerotiorum (setting [1]) was 625 µg/mL in each case.

For the compound `CCCCCCC(=O)O` [Heptanoic acid, heptanoic acid], the MIC was 156 µg/mL in the test on Alternaria solani (setting [1]); 156 µg/mL in the test on Alternaria solani (setting [11]); 156 µg/mL in the test on Botrytis cinerea (Table 24, Compound B alone, 48 hours incubation, read-out: MIC (B)); 39.1 µg/mL in the test on Sclerotinia sclerotiorum (Table 16, Compound B alone, incubation 7 days, read-out: MIC (B)); 39.1 µg/mL with Sclerotinia sclerotiorum (Table 17, Compound B alone, incubation 7 days, read-out: MIC (B)); 39.1 µg/mL with Sclerotinia sclerotiorum (Table 19, Compound B alone, incubation 7 days, read-out: MIC (B)).

For the compound `CCCC/C=C/CC(=O)O` [Trans-3-octenoic acid], the MIC in the test on Alternaria solani (setting [1]), in the test with Alternaria solani (setting [11]), in the test on Fusarium oxysporum (setting [4]), in the test on Fusarium oxysporum (setting [5]) and in the test with Fusarium oxysporum (setting [6]) was 156 µg/mL in each case.

`Fc1ccc([C@]2(Cn3cncn3)O[C@H]2c2ccccc2Cl)cc1` (racemic) [Epoxiconazole, reference compound]: the MIC stood at 30 µg/mL in the test on Fusarium oxysporum (48 h, Table 31, Compound A alone, 48 hours incubation, read-out: MIC (A)); 30 µg/mL in the test with Botrytis cinerea (Table 23, Compound A alone, incubation 48 hours, read-out: MIC (A)); 30 µg/mL in the test with Botrytis cinerea (Table 49, Compound A alone, 48 hours incubation, read-out: MIC (A)); 30 µg/mL in the test on Sclerotinia sclerotiorum (Table 19, Compound A alone, incubation 7 days, read-out: MIC (A)); 30 µg/mL in the test with Sclerotinia sclerotiorum (setting [12]); 30 µg/mL with Sclerotinia sclerotiorum (Table 40, Compound A alone, 7 days incubation, read-out: MIC (A)).

In the case of `CC/C=C\CC(=O)O` [Cis-3-hexenoic acid], the MIC with Alternaria solani (setting [1]) worked out at 312 µg/mL; in the test on Sclerotinia sclerotiorum (Table 34, Compound B alone, 7 days incubation, read-out: MIC (B)) it was 156 µg/mL.

For the compound `N#Cc1c(Cl)c(Cl)c(Cl)c(C#N)c1Cl` [Chlorothalonil, reference compound], the MIC came out at 0.125 µg/mL in the test on Fusarium oxysporum (48 h, Table 12, Compound A alone, incubation 48 hours, read-out: MIC (A)); 0.0176 µg/mL in the test on Botrytis cinerea (Table 46, Compound A alone, 48 hours incubation, read-out: MIC (A)); 0.0312 µg/mL in the test on Sclerotinia sclerotiorum (setting [12]); 0.0312 µg/mL with Sclerotinia sclerotiorum (Table 36, Compound A alone, 7 days incubation, read-out: MIC (A)).

On to `CO/C=C(/C(=O)OC)c1ccccc1COc1cccc(C(F)(F)F)n1` [Picoxystrobin, reference compound], for which the “MIC (A)” value with Alternaria solani (Compound A alone, 7 days incubation) turned out to be 500 µg/mL; in the test with Alternaria solani (Table 60, Compound A alone, 7 days incubation), 500 µg/mL; with Botrytis cinerea (Table 51, Compound A alone, 48 hours incubation), 250 µg/mL; in the test on Botrytis cinerea (Table 52, Compound A alone, 48 hours incubation), 250 µg/mL.

With `CCCCC=CCC(=O)O` [3-Octenoic acid, 3-octenoic acid], the MIC with Alternaria solani (setting [11]) amounted to 156 µg/mL; in the test on Fusarium oxysporum (24 h, Table 3, Compound B alone, 24 hour incubation, read-out: MIC(B)), 147 µg/mL; in the test with Fusarium oxysporum (24 h, Table 4, Compound B alone, 24 hour incubation, read-out: MIC (B)), 147 µg/mL; in the test on Fusarium oxysporum (setting [5]), 156 µg/mL; with Fusarium oxysporum (48 h, Table 31, Compound B alone, 48 hours incubation, read-out: MIC (B)) it was 156 µg/mL; in the test on Fusarium oxysporum (setting [6]), 156 µg/mL.
